These results are taken from ChEMBL document CHEMBL1201862, “PubChem BioAssay data set” (2004).

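Results reflect a 48-hour exposure of cells in 96-well plates to compound at five concentrations. Here, GI50 denotes the concentration required for 50% inhibition of growth.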 The source made the active and inactive calls. Rule as the data show it: active = GI50 up to about 1.1 µM and inactive = higher.

Among the test systems are OVCAR-8; HL-60; HOP-92; LOX IMVI; KM12; SNB-19; UO-31; SN12C; SK-MEL-2; SW-620; U-251; NCI-H522; CAKI-1; COLO 205; CCRF-CEM; MOLT-4.
What all share (assay): inhibition of tumour cell growth, NCI panel, 48 h

For the compound `O=C(Nc1nc2ncn(CCOC(=O)c3ccccc3)c2c(=S)[nH]1)c1ccccc1`, the GI50 in the test on OVCAR-8 is 45.6 µM (inactive); in the test with HL-60, > 100 µM (inactive); with HOP-92 it was 42.7 µM (inactive); with LOX IMVI, > 100 µM (inactive); in the test with KM12, > 100 µM (inactive); with SNB-19 it was 71.9 µM (inactive). Moreover, the GI50 with UO-31 is 61.7 µM (inactive); in the test on SN12C it was > 100 µM (inactive); with SK-MEL-2 it was 41.6 µM (inactive); in the test with SW-620, > 100 µM (inactive); in the test on U-251 it was 31.8 µM (inactive); with NCI-H522 it was 21 µM (inactive). Further, the GI50 in the test on CAKI-1, with COLO 205 and in the test on CCRF-CEM was > 100 µM (inactive) each time.
With `Cc1nc2c(nc1C)C(=O)C1=C(C2=O)C2C=CC1CC2`, the GI50 in the test on OVCAR-8 is 3.48 µM (inactive); in the test on HL-60, 1.44 µM (inactive); in the test on HOP-92, 1.97 µM (inactive); in the test on LOX IMVI it was 2.21 µM (inactive); in the test on KM12, 13.5 µM (inactive); in the test on SNB-19, 32.6 µM (inactive). In addition, the GI50 is 12.6 µM (inactive) in the test on UO-31; 16.7 µM (inactive) in the test on SN12C; 13.2 µM (inactive) in the test with SK-MEL-2; 2.74 µM (inactive) with SW-620; 5.35 µM (inactive) in the test on U-251; 4.35 µM (inactive) in the test with NCI-H522. For the same compound, the GI50 is 18.3 µM (inactive) with CAKI-1, 14.9 µM (inactive) in the test with COLO 205, 1.1 µM (active) in the test on CCRF-CEM and 1.32 µM (inactive) in the test on MOLT-4.
Turning to `NC1=NC2=c3ccccc3=C(c3cnccn3)C2(c2cnccn2)c2ccccc21` (stereo unspecified), the GI50 in the test with OVCAR-8 was 73.3 µM (inactive); in the test with HL-60, 52.8 µM (inactive); in the test with HOP-92, 37.9 µM (inactive); with LOX IMVI, 64.4 µM (inactive); in the test with KM12, 81.8 µM (inactive); with SNB-19, 48.2 µM (inactive). Also, the GI50 was 44.4 µM (inactive) in the test with UO-31; > 100 µM (inactive) with SN12C; > 100 µM (inactive) in the test with SK-MEL-2; > 100 µM (inactive) in the test with SW-620; 98.9 µM (inactive) with U-251; 49.5 µM (inactive) in the test with NCI-H522. The GI50 in the test on CAKI-1 is 42.8 µM (inactive); in the test with COLO 205, 32.4 µM (inactive); in the test on CCRF-CEM it was 89.7 µM (inactive); with MOLT-4 it was 33.6 µM (inactive).
`CC1CN1c1c(C(=O)/C=C/c2ccc(Cl)cc2)c(-c2ccccc2)nn(C)c1=O` (stereo unspecified): the GI50 with OVCAR-8 was 2.55 µM (inactive); with HL-60 it was 2.23 µM (inactive); in the test with HOP-92, > 10 µM (inactive); in the test with LOX IMVI, 2.08 µM (inactive); with KM12, 3.3 µM (inactive); with SNB-19, 9.71 µM (inactive). The GI50 in the test on UO-31 was 6.44 µM (inactive); in the test with SN12C it was 3.11 µM (inactive); in the test on SK-MEL-2, 2.4 µM (inactive); with SW-620 it was 2.44 µM (inactive); in the test with U-251 it was 2.35 µM (inactive); in the test on NCI-H522, 2.18 µM (inactive). For the same compound, the GI50 in the test with CAKI-1 is 4.74 µM (inactive); in the test with COLO 205, 1.96 µM (inactive); in the test with CCRF-CEM, 2.24 µM (inactive); in the test with MOLT-4, 2.24 µM (inactive).
In the case of `CN=[S+]([O-])(c1ccccc1)c1ccccc1`, the GI50 in the test on OVCAR-8, in the test with HL-60, in the test on HOP-92, in the test on LOX IMVI, in the test on KM12 and with SNB-19 was > 100 µM (inactive) in each case. Moreover, the GI50 in the test on UO-31, with SN12C, in the test on SK-MEL-2, in the test on SW-620, with U-251 and in the test with NCI-H522 was > 100 µM (inactive) throughout. Besides, the GI50 with CAKI-1, in the test on COLO 205, with CCRF-CEM and with MOLT-4 was > 100 µM (inactive) throughout.
With `CCOC(=O)c1cn(CC)c2cc3c(cc2c1=O)SCS3`, the GI50 in the test with OVCAR-8, in the test on HL-60, in the test with HOP-92, with LOX IMVI, with KM12 and with SNB-19 was > 100 µM (inactive) each time. For the same compound, the GI50 in the test on UO-31, in the test with SN12C, in the test with SK-MEL-2, with SW-620, with U-251 and with NCI-H522 was > 100 µM (inactive) each time. Moreover, the GI50 with CAKI-1, with COLO 205, in the test with CCRF-CEM and with MOLT-4 was > 100 µM (inactive) in each case.
For the compound `NC(=S)N/N=C(\CCC(=O)Nc1ccccc1[N+](=O)[O-])CC(=O)c1ccco1`, the GI50 in the test with OVCAR-8, in the test with HL-60, with HOP-92, with LOX IMVI, with KM12 and in the test with SNB-19 was > 100 µM (inactive) in each case. For the same compound, the GI50 in the test with UO-31, in the test with SN12C, with SK-MEL-2, in the test on SW-620, in the test with U-251 and in the test with NCI-H522 was > 100 µM (inactive) throughout. In addition, the GI50 in the test with CAKI-1, with COLO 205, in the test with CCRF-CEM and in the test on MOLT-4 was > 100 µM (inactive) each time.
Consider `CN(c1ccccc1)c1c(Cl)c(=O)oc2c1ccc1occc12`, for which the GI50 was > 100 µM (inactive) in the test on OVCAR-8; 15.6 µM (inactive) in the test with HL-60; 67.3 µM (inactive) in the test on HOP-92; 97.3 µM (inactive) in the test on LOX IMVI; 59.7 µM (inactive) in the test on SNB-19; > 100 µM (inactive) in the test on UO-31. Also, the GI50 was > 100 µM (inactive) in the test on SN12C; > 100 µM (inactive) with SK-MEL-2; > 100 µM (inactive) with SW-620; > 100 µM (inactive) in the test on U-251; > 100 µM (inactive) with NCI-H522; 53.3 µM (inactive) with CAKI-1. Further, the GI50 was 64.7 µM (inactive) in the test on CCRF-CEM and 55.2 µM (inactive) with MOLT-4.
As for `Cc1cn2c(=O)c3ccccc3nc2s1`, the GI50 with OVCAR-8, in the test on HL-60, in the test with HOP-92, in the test with LOX IMVI, with KM12 and with SNB-19 was > 100 µM (inactive) each time. The GI50 in the test on UO-31, with SN12C, in the test with SK-MEL-2, in the test on SW-620, in the test with U-251 and in the test on NCI-H522 was > 100 µM (inactive) in each case. Also, the GI50 with CAKI-1, in the test on COLO 205, with CCRF-CEM and with MOLT-4 was > 100 µM (inactive) each time.
`CC(C)(CCl)NC(=O)c1cccc(C(=O)NC(C)(C)CCl)n1`: the GI50 in the test on HL-60, in the test on HOP-92, in the test on LOX IMVI, in the test with KM12, in the test with SNB-19 and in the test on UO-31 was > 100 µM (inactive) in each case. In addition, the GI50 in the test on SN12C, in the test with SK-MEL-2, in the test on SW-620, in the test with U-251, with NCI-H522 and with CAKI-1 was > 100 µM (inactive) each time. For the same compound, the GI50 in the test with COLO 205, with CCRF-CEM and with MOLT-4 was > 100 µM (inactive) throughout.
Turning to `O=C(N/N=C1\C(=O)N(c2nccs2)C(=O)C(=O)C1c1nc2ccccc2s1)c1ccccc1O` (stereo unspecified), the GI50 in the test on OVCAR-8 was 43 µM (inactive); in the test on HL-60, 36.7 µM (inactive); with HOP-92 it was > 100 µM (inactive); in the test on LOX IMVI it was 44.3 µM (inactive); in the test with KM12 it was 54.5 µM (inactive); in the test with SNB-19, 60 µM (inactive). For the same compound, the GI50 with UO-31 was 8.22 µM (inactive); in the test with SN12C it was 39.1 µM (inactive); with SK-MEL-2, > 100 µM (inactive); in the test on SW-620, 47.9 µM (inactive); with U-251, 49.8 µM (inactive); with NCI-H522, 30.2 µM (inactive). For the same compound, the GI50 with CAKI-1 is > 100 µM (inactive); in the test with COLO 205, > 100 µM (inactive); in the test with CCRF-CEM, 39.5 µM (inactive).
As to `C=CCCn1nc(-c2ccccc2)oc1=O`, the GI50 with OVCAR-8, in the test on HL-60, with HOP-92, in the test with LOX IMVI, in the test on KM12 and with SNB-19 was > 100 µM (inactive) throughout. Moreover, the GI50 in the test with UO-31, with SN12C, in the test on SK-MEL-2, with SW-620, in the test on U-251 and in the test on NCI-H522 was > 100 µM (inactive) in each case. Besides, the GI50 in the test with CAKI-1, with COLO 205, in the test on CCRF-CEM and with MOLT-4 was > 100 µM (inactive) throughout.
For `COC(=O)C(=O)C(C#N)c1nc2ccccc2s1` (stereo unspecified), the GI50 in the test on OVCAR-8 is > 100 µM (inactive); with HL-60 it was 92.9 µM (inactive); in the test with HOP-92, > 100 µM (inactive); in the test with LOX IMVI it was > 100 µM (inactive); in the test on SNB-19, > 100 µM (inactive); in the test with UO-31, 39.8 µM (inactive). Also, the GI50 in the test with SN12C, with SK-MEL-2, in the test on SW-620, in the test with NCI-H522, in the test with CAKI-1 and with COLO 205 was > 100 µM (inactive) in each case. Besides, the GI50 is 75.2 µM (inactive) in the test on CCRF-CEM and 60.4 µM (inactive) in the test on MOLT-4.
